Measurements as given in patent US12486267B2, “Imidazo[1,2-A]pyridine and [1,2,4]triazolo[1,5-A]pyridine derivatives as TLR9 inhibitors for the treatment of fibrosis” (BRISTOL-MYERS SQUIBB COMPANY, priority 2020, dated 2025).

Key:
Type in all cases: cell-based
human TLR9 = biological target: T1, human TLR9 (Homo sapiens, UniProt Q9NR96); test: TLR9 inhibition reporter assay (HEK-Blue cells, SEAP reporter); details: HEK-Blue cells overexpressing human TLR9; stimulated with ODN2006 5 nM; 22 hour incubation; SEAP readout
T1 sequence (Q9NR96 26-1032): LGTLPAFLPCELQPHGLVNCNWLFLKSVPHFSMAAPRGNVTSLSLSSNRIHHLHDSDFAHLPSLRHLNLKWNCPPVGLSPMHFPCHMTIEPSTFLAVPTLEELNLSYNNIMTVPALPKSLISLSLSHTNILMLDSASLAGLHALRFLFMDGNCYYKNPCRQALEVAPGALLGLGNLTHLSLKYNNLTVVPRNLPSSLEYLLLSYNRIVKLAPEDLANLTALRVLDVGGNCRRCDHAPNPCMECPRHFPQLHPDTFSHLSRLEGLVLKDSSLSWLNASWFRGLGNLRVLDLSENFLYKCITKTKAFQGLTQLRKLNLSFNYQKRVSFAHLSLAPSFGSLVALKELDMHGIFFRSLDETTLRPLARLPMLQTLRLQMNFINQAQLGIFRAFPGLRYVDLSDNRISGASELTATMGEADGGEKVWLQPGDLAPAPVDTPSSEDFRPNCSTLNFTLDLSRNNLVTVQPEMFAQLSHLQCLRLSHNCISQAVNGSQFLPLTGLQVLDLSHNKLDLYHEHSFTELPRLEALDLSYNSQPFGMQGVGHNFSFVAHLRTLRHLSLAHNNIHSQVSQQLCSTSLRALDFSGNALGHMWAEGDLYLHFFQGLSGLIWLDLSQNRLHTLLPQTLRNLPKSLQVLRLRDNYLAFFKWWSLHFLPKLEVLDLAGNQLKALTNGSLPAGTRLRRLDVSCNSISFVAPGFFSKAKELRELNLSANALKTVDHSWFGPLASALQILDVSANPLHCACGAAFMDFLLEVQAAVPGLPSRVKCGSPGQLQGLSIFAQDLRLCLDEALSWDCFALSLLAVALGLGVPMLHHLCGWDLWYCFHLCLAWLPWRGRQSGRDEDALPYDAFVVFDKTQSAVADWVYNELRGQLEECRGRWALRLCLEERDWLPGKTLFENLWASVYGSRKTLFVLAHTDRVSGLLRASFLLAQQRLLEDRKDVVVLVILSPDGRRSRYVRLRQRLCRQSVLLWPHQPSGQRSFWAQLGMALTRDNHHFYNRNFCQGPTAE
In short: (§1)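 HEK-Blue cells with an NF-κB/AP-1-driven SEAP reporter were pre-treated 30 min at room temperature with compound (0.05 nM–50 μM), then stimulated with gardiquimod 7.5 μM (TLR7), R848 15.9 μM (TLR8) or ODN2006 5 nM (TLR9). After 22 h at 37 °C, SEAP was read; % inhibition was referenced to agonist+DMSO and known-inhibitor wells.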

human TLR7 = biological target: T2, human TLR7 (Homo sapiens, UniProt Q9NYK1); test: TLR7 inhibition reporter assay (HEK-Blue cells, SEAP reporter); details: HEK-Blue cells overexpressing human TLR7; stimulated with gardiquimod 7.5 μM; 22 hour incubation; SEAP readout
T2 sequence (Q9NYK1 27-1049): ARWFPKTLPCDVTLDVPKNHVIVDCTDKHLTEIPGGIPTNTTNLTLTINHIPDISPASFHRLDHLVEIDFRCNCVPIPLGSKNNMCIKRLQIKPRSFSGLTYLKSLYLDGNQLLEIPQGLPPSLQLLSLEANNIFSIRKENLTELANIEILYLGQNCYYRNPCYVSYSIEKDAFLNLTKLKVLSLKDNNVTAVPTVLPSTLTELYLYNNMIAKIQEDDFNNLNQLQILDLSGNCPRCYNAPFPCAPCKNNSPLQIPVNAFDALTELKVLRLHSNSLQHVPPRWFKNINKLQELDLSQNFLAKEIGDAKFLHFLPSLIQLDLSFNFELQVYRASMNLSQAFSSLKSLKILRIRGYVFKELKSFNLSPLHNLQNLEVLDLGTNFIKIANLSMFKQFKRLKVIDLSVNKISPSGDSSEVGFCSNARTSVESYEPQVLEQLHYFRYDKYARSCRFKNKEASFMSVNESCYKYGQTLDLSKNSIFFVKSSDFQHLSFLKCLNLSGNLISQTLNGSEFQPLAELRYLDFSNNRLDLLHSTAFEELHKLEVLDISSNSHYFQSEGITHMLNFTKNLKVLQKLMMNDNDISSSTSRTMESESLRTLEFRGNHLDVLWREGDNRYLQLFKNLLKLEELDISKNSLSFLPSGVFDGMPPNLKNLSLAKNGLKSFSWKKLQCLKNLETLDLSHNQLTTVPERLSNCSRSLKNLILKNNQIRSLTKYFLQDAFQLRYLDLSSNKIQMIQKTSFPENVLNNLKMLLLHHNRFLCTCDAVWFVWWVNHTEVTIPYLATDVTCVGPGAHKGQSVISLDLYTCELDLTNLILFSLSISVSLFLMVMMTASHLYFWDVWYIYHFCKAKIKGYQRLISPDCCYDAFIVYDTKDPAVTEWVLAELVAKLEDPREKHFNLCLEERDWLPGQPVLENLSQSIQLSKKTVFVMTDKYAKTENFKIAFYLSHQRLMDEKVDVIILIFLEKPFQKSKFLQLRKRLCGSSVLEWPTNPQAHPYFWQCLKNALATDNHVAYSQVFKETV
In short: as §1

human TLR8 = biological target: T3, human TLR8 (Homo sapiens, UniProt Q9NR97); test: TLR8 inhibition reporter assay (HEK-Blue cells, SEAP reporter); details: HEK-Blue cells overexpressing human TLR8; stimulated with R848 15.9 μM; 22 hour incubation; SEAP readout
T3 sequence (Q9NR97 27-1041): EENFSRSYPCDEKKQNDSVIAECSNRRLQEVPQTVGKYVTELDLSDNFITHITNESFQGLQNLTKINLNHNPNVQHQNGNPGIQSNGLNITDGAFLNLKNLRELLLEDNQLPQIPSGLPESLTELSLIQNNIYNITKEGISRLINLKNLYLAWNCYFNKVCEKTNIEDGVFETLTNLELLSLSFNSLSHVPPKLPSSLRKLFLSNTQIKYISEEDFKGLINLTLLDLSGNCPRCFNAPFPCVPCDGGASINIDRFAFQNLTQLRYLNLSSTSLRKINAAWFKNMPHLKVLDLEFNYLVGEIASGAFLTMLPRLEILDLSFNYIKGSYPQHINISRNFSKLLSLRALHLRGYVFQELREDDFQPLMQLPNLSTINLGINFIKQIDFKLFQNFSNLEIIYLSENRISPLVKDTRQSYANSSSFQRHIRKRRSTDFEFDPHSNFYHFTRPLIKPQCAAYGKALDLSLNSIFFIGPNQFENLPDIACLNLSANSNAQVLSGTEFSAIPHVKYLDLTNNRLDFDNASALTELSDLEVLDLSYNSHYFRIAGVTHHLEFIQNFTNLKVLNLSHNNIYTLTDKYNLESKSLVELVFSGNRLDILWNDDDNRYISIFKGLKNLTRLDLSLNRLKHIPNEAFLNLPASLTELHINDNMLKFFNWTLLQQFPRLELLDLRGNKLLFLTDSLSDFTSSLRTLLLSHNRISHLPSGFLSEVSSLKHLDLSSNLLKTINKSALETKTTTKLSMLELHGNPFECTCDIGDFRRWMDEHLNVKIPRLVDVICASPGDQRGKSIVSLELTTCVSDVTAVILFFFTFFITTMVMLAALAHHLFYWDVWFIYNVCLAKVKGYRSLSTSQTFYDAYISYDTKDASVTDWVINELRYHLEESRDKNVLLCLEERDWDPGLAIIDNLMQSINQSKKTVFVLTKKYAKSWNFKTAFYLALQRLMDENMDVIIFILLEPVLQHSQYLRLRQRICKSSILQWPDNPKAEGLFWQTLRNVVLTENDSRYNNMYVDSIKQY
In short: as §1

IC50 (human TLR9) [µM] | IC50 (human TLR7) [µM] | IC50 (human TLR8) [µM] | Structure (SMILES)
0.01 | > 50 | 22.5 | CS(=O)(=O)c1ccc(-c2cn3cc(C4CCN(C5CCCN(C6CCOCC6)CC5)CC4)cc(F)c3n2)cc1 (single isomer, unassigned) [Example 130, 8-fluoro-2-(4-(methylsulfonyl)phenyl)-6-(1-(1-(tetrahydro-2H-pyran-4-yl)azepan-4-yl)piperidin-4-yl)imidazo[1,2-a]pyridine]
0.067 | > 50 | > 50 | COc1ccc(-c2cn3c(n2)CC[C@H](C2CCN(C4CC5CCC(C4)N5C(C)C)CC2)C3)cc1OC (single isomer, unassigned) [Example 134]
0.042 | 3.9 | > 25 | COc1ccc(-c2cn3c(n2)CC[C@H](C2CCN(C4CC5CCC(C4)N5C(C)C)CC2)C3)cc1OC (single isomer, unassigned) [Example 135]
0.078 | 15.2 | > 25 | COc1ccc(-c2cn3c(n2)CC[C@@H](C2CCN(C4CC5CCC(C4)N5C(C)C)CC2)C3)cc1OC (single isomer, unassigned) [Example 136]
0.046 | 3 | > 25 | COc1ccc(-c2cn3c(n2)CC[C@@H](C2CCN(C4CC5CCC(C4)N5C(C)C)CC2)C3)cc1OC (single isomer, unassigned) [Example 137]
0.381 | > 50 | > 50 | CS(=O)(=O)c1ccc(-c2cn3c(n2)CC[C@H](C2CCN(C4CC5CCC(C4)N5CC4CC4)CC2)C3)cc1 (single isomer, unassigned) [Example 138]
0.033 | 10.7 | > 50 | CS(=O)(=O)c1ccc(-c2cn3c(n2)CC[C@H](C2CCN(C4CC5CCC(C4)N5CC4CC4)CC2)C3)cc1 (single isomer, unassigned) [Example 139]
0.352 | > 50 | > 50 | CS(=O)(=O)c1ccc(-c2cn3c(n2)CC[C@@H](C2CCN(C4CC5CCC(C4)N5CC4CC4)CC2)C3)cc1 (single isomer, unassigned) [Example 140]
0.023 | 15.8 | > 50 | CS(=O)(=O)c1ccc(-c2cn3c(n2)CC[C@@H](C2CCN(C4CC5CCC(C4)N5CC4CC4)CC2)C3)cc1 (single isomer, unassigned) [Example 141]
0.056 | 14 | > 50 | COc1ccc(-c2cn3cc(C4CCN(C5CCN(C6CC6)CC5)CC4)cc(C)c3n2)cc1OC [Example 1, 6-(1′-cyclopropyl-[1,4′-bipiperidin]-4-yl)-2-(3,4-dimethoxyphenyl)-8-methylimidazo [1,2-a]pyridine]
0.052 | 3.8 | > 50 | COc1ccc(-c2cn3cc(C4CCN(C5CCN(C(C)C)CC5)CC4)cc(C)c3n2)cc1OC [Example 2, 2-(3,4-dimethoxyphenyl)-6-(1′-isopropyl-[1,4′-bipiperidin]-4-yl)-8-methylimidazo[1,2-a]pyridine]
0.032 | 1.8 | > 50 | COc1ccc(-c2cn3cc(C4CCN(C5CCN(CC(C)C)CC5)CC4)cc(C)c3n2)cc1OC [Example 3, 2-(3,4-dimethoxyphenyl)-6-(1′-isobutyl-[1,4′-bipiperidin]-4-yl)-8-methylimidazo[1,2-a]pyridine]
0.146 | 5.5 | > 50 | COc1ccc(-c2cn3cc(C4CCN(C5CCN(C6CC6)CC5)CC4)cc(C)c3n2)cc1F [Example 4, 6-(1′-cyclopropyl-[1,4′-bipiperidin]-4-yl)-2-(3-fluoro-4-methoxyphenyl)-8-methylimidazo[1,2-a]pyridine]
0.166 | 3 | > 50 | COc1ccc(-c2cn3cc(C4CCN(C5CCN(C(C)C)CC5)CC4)cc(C)c3n2)cc1F [Example 5, 2-(3-fluoro-4-methoxyphenyl)-6-(1′-isopropyl-[1,4′-bipiperidin]-4-yl)-8-methylimidazo[1,2-a]pyridine]
